Measured values: patent US11214803B2, “Modulators of YAP1 expression” (Ionis Pharmaceuticals, Inc., priority 2019, dated 2022)
Strand notation (5' to 3'): a small letter for the sugar, then the base; units joined by * are phosphorothioate-linked, units joined directly phosphodiester-linked; [ ] holds rarer units or linkages, { } end groups; capitals alone tell only the bases. k = constrained ethyl (cEt); [5mC] = 5-methylcytosine; d = 2'-deoxy (DNA)

Tested on: Yap1 mRNA
Experiment: Dose-dependent inhibition of human Yap1 in A-431 cells (Example 7, 10,000 cells per well, RTS36584)
Format: cell-based
Details: free uptake
How it was run: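 Yap1 mRNA was expressed as percent of untreated control after normalization to total RNA (RIBOGREEN), and IC50 was derived by log/linear linear regression. The read-out used primer-probe set RTS36584 roughly 48 hours after free-uptake dosing of oligonucleotides into A-431 cells (10,000 cells/well).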

[1] = Table 57, 15.6 nM, A-431 cells 10,000 cells per well, 48 hours
[2] = Table 57, 62.5 nM, A-431 cells 10,000 cells per well, 48 hours
[3] = Table 57, 4000.00 nM, A-431 cells 10,000 cells per well, 48 hours
[4] = Table 57, A-431 cells 10,000 cells per well
[5] = Table 61, 15.6 nM, A-431 cells 10,000 cells per well, 48 hours
[6] = Table 61, 62.5 nM, A-431 cells 10,000 cells per well, 48 hours
[7] = Table 61, 4000.00 nM, A-431 cells 10,000 cells per well, 48 hours
[8] = Table 61, A-431 cells 10,000 cells per well
[9] = 15.6 nM, A-431 cells, 10,000 cells per well, approximately 48 hours
[10] = 62.5 nM, A-431 cells, 10,000 cells per well, approximately 48 hours
[11] = 4000.00 nM, A-431 cells, 10,000 cells per well, approximately 48 hours
[12] = A-431 cells, approximately 48 hours, linear regression on log/linear plot
[13] = Table 60, 15.6 nM, A-431 cells 10,000 cells per well, 48 hours
[14] = Table 60, 62.5 nM, A-431 cells 10,000 cells per well, 48 hours
[15] = Table 60, 4000.00 nM, A-431 cells 10,000 cells per well, 48 hours
[16] = Table 60, A-431 cells 10,000 cells per well
[17] = Table 56, 15.6 nM, A-431 cells 10,000 cells per well, 48 hours
[18] = Table 56, 62.5 nM, A-431 cells 10,000 cells per well, 48 hours
[19] = Table 56, 4000.00 nM, A-431 cells 10,000 cells per well, 48 hours
[20] = Table 56, A-431 cells 10,000 cells per well

Substance: 958786 (kT*kA*kT*dG*dT*d[5mC]*d[5mC]*dT*dA*d[5mC]*dT*dT*dT*k[5mC]*k[5mC]*k[5mC]; antisense) [compound 958786]
- Yap1 mRNA, % UTC [1]: 106 % UTC
- Yap1 mRNA, % UTC [2]: 84 % UTC
- Yap1 mRNA, % UTC [3]: 25 % UTC
- IC50 [4]: 300 nM

Substance: 958569 (kA*kG*k[5mC]*d[5mC]*dT*dT*dA*dG*dA*dG*dT*d[5mC]*dA*kA*kT*kT; antisense) [compound 958569]
- Yap1 mRNA, % UTC [5]: 82 % UTC
- Yap1 mRNA, % UTC [6]: 49 % UTC
- Yap1 mRNA, % UTC [7]: 7 % UTC
- IC50 [8]: 100 nM

Substance: 958605 (k[5mC]*kT*k[5mC]*dA*dG*dA*dT*dG*dT*dA*d[5mC]*d[5mC]*dA*kA*k[5mC]*kG; antisense) [compound 958605]
- Yap1 mRNA, % UTC [9]: 76 % UTC
- Yap1 mRNA, % UTC [10]: 63 % UTC
- Yap1 mRNA, % UTC [11]: 9 % UTC
- IC50 [12]: 100 nM

Substance: 958551 (k[5mC]*kT*k[5mC]*d[5mC]*dT*dG*dT*dA*dG*dA*d[5mC]*dA*d[5mC]*kA*kT*kA; antisense) [compound 958551]
- Yap1 mRNA, % UTC [1]: 95 % UTC
- Yap1 mRNA, % UTC [2]: 73 % UTC
- Yap1 mRNA, % UTC [3]: 14 % UTC
- IC50 [4]: 200 nM

Substance: 958753 (kT*kG*kT*dA*dT*dA*dT*dG*d[5mC]*d[5mC]*dG*dT*dT*k[5mC]*k[5mC]*k[5mC]; antisense) [compound 958753]
- Yap1 mRNA, % UTC [13]: 72 % UTC
- Yap1 mRNA, % UTC [14]: 48 % UTC
- Yap1 mRNA, % UTC [15]: 11 % UTC
- IC50 [16]: 100 nM

Substance: 958466 (kG*kT*k[5mC]*dA*dT*dT*dA*dA*dG*dG*dA*dT*dG*kT*k[5mC]*kA; antisense) [compound 958466]
- Yap1 mRNA, % UTC [1]: 84 % UTC
- Yap1 mRNA, % UTC [2]: 81 % UTC
- Yap1 mRNA, % UTC [3]: 30 % UTC
- IC50 [4]: 300 nM

Substance: 958686 (k[5mC]*kG*k[5mC]*dA*dA*dT*dA*dT*dA*dG*dT*d[5mC]*dT*kA*kT*kA; antisense) [compound 958686]
- Yap1 mRNA, % UTC [1]: 75 % UTC
- Yap1 mRNA, % UTC [2]: 69 % UTC
- Yap1 mRNA, % UTC [3]: 18 % UTC
- IC50 [4]: 100 nM

Substance: 958506 (kG*k[5mC]*kA*dG*dA*dT*dA*dA*dT*d[5mC]*dG*dA*dG*kA*kT*kT; antisense) [compound 958506]
- Yap1 mRNA, % UTC [1]: 80 % UTC
- Yap1 mRNA, % UTC [2]: 55 % UTC
- Yap1 mRNA, % UTC [3]: 10 % UTC
- IC50 [4]: 100 nM

Substance: 958578 (k[5mC]*kT*kT*dA*dA*dT*d[5mC]*dT*dG*dT*dG*dG*d[5mC]*kT*kA*k[5mC]; antisense) [compound 958578]
- Yap1 mRNA, % UTC [13]: 78 % UTC
- Yap1 mRNA, % UTC [14]: 52 % UTC
- Yap1 mRNA, % UTC [15]: 10 % UTC
- IC50 [16]: 100 nM

Substance: 958361 (antisense kG*k[5mC]*kT*d[5mC]*dG*dA*dA*d[5mC]*dA*dT*dG*d[5mC]*dT*kG*kT*kG) [compound 958361]
- Yap1 mRNA, % UTC [17]: 100 % UTC
- Yap1 mRNA, % UTC [18]: 80 % UTC
- Yap1 mRNA, % UTC [19]: 22 % UTC
- IC50 [20]: 220 nM

Substance: 958473 (kG*kT*k[5mC]*dT*d[5mC]*d[5mC]*dT*dT*dA*dG*dA*dT*d[5mC]*k[5mC]*kT*kT; antisense) [compound 958473]
- Yap1 mRNA, % UTC [13]: 85 % UTC
- Yap1 mRNA, % UTC [14]: 60 % UTC
- Yap1 mRNA, % UTC [15]: 17 % UTC
- IC50 [16]: 100 nM

Substance: 958726 (k[5mC]*kT*kG*dT*d[5mC]*dA*dG*dT*dT*dA*dT*d[5mC]*d[5mC]*kT*kA*kT; antisense) [compound 958726]
- Yap1 mRNA, % UTC [17]: 99 % UTC
- Yap1 mRNA, % UTC [18]: 70 % UTC
- Yap1 mRNA, % UTC [19]: 16 % UTC
- IC50 [20]: 170 nM

Substance: 958799 (kA*kT*kT*dA*d[5mC]*dT*d[5mC]*dA*dA*dT*d[5mC]*dA*dT*kG*kG*kT; antisense) [compound 958799]
- Yap1 mRNA, % UTC [5]: 88 % UTC
- Yap1 mRNA, % UTC [6]: 53 % UTC
- Yap1 mRNA, % UTC [7]: 10 % UTC
- IC50 [8]: 100 nM

Substance: 958735 (kA*kG*k[5mC]*dA*dA*dT*d[5mC]*dT*dT*dG*dT*dG*dG*kA*kT*k[5mC]; antisense) [compound 958735]
- Yap1 mRNA, % UTC [9]: 116 % UTC
- Yap1 mRNA, % UTC [10]: 69 % UTC
- Yap1 mRNA, % UTC [11]: 23 % UTC
- IC50 [12]: 200 nM
